Test results as given in patent publication US10174293B1, “Recombinant PB1 bacteriophages and uses thereof” (Charles Stark Draper Laboratory, Inc., priority 2018, dated 2019).

Tested on: drug sensitive strain
Experiment: Antibiotic susceptibility profiling with recombinant PB1 phages, drug sensitive strain
Format: cell-based, Pseudomonas aeruginosa
Excerpt: In some embodiments of the method, the differences in the reporter gene expression of the recombinant PB1 bacteriophage observed in the antibiotic treated sub-sample and the untreated control sub-sample is defined as μ.

gentamicin
luciferase activity of antibiotic treated sample (versus 'no drug' sample (FIG. 4B)): decline in luciferase activity
μ value over time (μ = difference in reporter expression, treated vs untreated (FIG. 4B)): steady increase in μ value over time
